# Patent US7951906B2, “Compounds capable of interacting with a cell-surface fibroblast growth factor receptor” (Enkam Pharmaceuticals A/S, priority 2002, dated 2011)
# Positions of bridges follow the written chain, without caps; N, C: chain ends. Chains are numbered I, II in the order given. No end group written: not given here.
# T1: FGFR1 Ig modules 2, 3 (Mus musculus, UniProt P16092)
# T1 construct: amino acids 249-365 and 141-365 of FGFR (swissprot p16092), respectively; made in house; host or cells: Drosophila S2 cells
# T1 sequence (P16092 141-365): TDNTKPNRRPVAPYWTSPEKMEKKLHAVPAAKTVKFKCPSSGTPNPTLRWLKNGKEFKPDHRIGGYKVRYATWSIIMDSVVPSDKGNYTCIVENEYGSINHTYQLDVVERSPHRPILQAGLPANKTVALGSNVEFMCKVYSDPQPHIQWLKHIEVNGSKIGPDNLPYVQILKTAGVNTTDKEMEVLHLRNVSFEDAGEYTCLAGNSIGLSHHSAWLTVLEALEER
# B1: NCAM Ig modules 1, 2 and 3: control protein: RV and amino acids 20-308 of rat NCAM, swissprot p13596 (protein)
# chain: RVLQVDIVPSQGEISVGESKFFLCQVAGDAKDKDISWFSPNGEKLSPNQQRISVVWNDDDSSTLTIYNANIDDAGIYKCVVTAEDGTQSEATVNVKIFQKLMFKNAPTPQEFKEGEDAVIVCDVVSSLPPTIIWKHKGRDVILKKDVRFIVLSNNYLQIRGIKKTDEGTYRCEGRILARGEINFKDIQVIVNVPPTVQARQSIVNATANLGQSVTLVCDADGFPEPTMSWTKDGEPIENEEEDDEKHIFSDDSSELTIRNVDKNDEAEYVCIAENKAGEQDASIHLKVFAK
# B2: NCAM F3 modules 1, 2: recombinant protein: AGHHHHHH and amino acids 507-705 of rat NCAM (swissprot p13596) (protein)
# chain: AGHHHHHHQADTPSSPSIDRVEPYSSTAQVQFDEPEATGGVPILKYKAEWKSLGEEAWHSKWYDAKEANMEGIVTIMGLKPETRYAVRLAALNGKGLGEISAATEFKTQPVREPSAPKLEGQMGEDGNSIKVNLIKQDDGGSPIRHYLVKYRALASEWKPEIRLPSGSDHVMLKSLDWNAEYEVYVVAENQQGKSKAAHFVFRTSAQ
# Assays:
# [1] = test system: hippocampal neurons; test: Neurite outgrowth from hippocampal neurons; type: cell-based, rat; settings: for retained stimulatory effect relative to the entire (non-mutated) FG loop peptide: peptides 50 μM; for stimulation of neurite outgrowth / length of neurites: 24 h, 5 μM F3 module 2
# Procedure: Dissociated neurons from embryonic rat hippocampus (embryonic day 19), prepared as described (Skladchikova et al., 1999), were grown on Permanox plastic (Nunc) for 24 h at a density of 6000 cells/cm^2, at 37° C., 5% CO2 in Neurobasal medium containing 20 mM Hepes, 100 U/ml penicillin, 100 μg/ml streptomycin, 0.4% BSA supplemented with B27 (Gibco BRL) and the below specified compounds. After 24 h, cells were fixed with paraformaldehyde, stained with Coomassie Brilliant Blue R250 and the length of neurites was measured as described (Skladchikova et al, 1999).
# [2] = molecular target: T1, FGFR1 Ig modules 2, 3; test: SPR binding to immobilized FGFR Ig modules 2, 3; settings: for coefficient of dissociation: immobilized FGFR modules 2, 3
# Text: The NCAM F3 modules 1, 2 (without expression of exons a, AAG), and FGFR1 Ig modules 2, 3 were produced using rat NCAM cDNA and mouse FGFR1 (IIIC iso-form) cDNA. The F3 module 1 and the combined F3 modules 1, 2 consist of […] (SEQ ID NO:173) and amino acids 507-611 and 507-705 of NCAM (swissprot p13596), respectively. […] The FGFR Ig module 2 consists of […] […] The FGFR Ig module 3 and the combined Ig modules 2, 3 consist of […] (SEQ ID NO:174) and amino acids 249-365 and 141-365 of FGFR (swissprot p16092), respectively. […] All the proteins were purified by affinity chromatography using Ni2^+−NTA resin (Qiagen, USA) and/or ion exchange chromatography and gel filtration. ^15N-labelled F3 module 2 was produced as described (Thomsen et al., 1996). The NCAM Ig modules 1, 2 and 3 (RV and amino acids 20-308 of rat NCAM, swissprot p13596) was produced as described (Soroka et al., 2002).
# The flow-rate was 5 μl/min. […] The FGFR Ig modules 2, 3 were immobilized on a sensor chip CM5 using amine coupling kit (Biosensor AB) as follows: 1) the two halves of the chip (designated Fc1 and Fc2) were activated by 20 μl activation solution; 2) the protein was immobilized on Fc1 using 12 μl 20 μg/ml protein in 10 mM sodium phosphate buffer pH 6.0; 3) Fc1 and Fc2 were blocked by 35 μl blocking solution. […] The resulting curve was used for analysis.
# [3] = molecular target: T2, human FGFR1 (Homo sapiens, UniProt P11362); test: FGFR1 phosphorylation, Assay 1 (TREX-293 cells, StrepII-tagged FGFR1); type: cell-based; settings: 20 min, 5 μM F3 module, 2.5 μM dendrimeric FG loop peptide
# T2 construct: expressed in transfected cells; host or cells: TREX-293 cells (Invitrogen), Flp-In system
# T2 sequence (P11362 22-822): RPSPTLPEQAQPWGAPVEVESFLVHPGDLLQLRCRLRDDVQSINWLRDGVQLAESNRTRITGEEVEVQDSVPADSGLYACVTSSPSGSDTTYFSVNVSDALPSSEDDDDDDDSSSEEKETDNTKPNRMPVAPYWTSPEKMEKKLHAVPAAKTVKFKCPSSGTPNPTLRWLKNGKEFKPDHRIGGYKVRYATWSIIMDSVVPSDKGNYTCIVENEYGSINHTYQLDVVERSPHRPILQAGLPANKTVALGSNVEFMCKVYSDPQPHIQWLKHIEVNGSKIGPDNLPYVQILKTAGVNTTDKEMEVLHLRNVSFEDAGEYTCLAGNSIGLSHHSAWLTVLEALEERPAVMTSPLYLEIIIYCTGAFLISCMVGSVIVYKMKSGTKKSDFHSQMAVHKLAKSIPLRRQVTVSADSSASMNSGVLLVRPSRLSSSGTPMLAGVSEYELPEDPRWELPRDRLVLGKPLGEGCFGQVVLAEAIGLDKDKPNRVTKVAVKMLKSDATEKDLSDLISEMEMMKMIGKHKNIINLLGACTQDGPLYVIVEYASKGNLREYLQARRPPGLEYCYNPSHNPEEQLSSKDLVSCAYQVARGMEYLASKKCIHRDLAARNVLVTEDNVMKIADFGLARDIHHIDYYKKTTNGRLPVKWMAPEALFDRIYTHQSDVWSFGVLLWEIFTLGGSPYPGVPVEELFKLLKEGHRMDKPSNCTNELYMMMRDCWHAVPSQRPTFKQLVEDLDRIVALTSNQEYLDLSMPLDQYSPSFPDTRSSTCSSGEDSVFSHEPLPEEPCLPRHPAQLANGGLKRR
# Procedure: Assay 1: TREX-293 cells (Invitrogen) were stably transfected with human FGFR1 having a C-terminal StrepII-tag (IBA biotech), using the Flp-In system (Invitrogen). For the study of phosphorylation: ˜2×10^7 cells were starved overnight before stimulation for 20 min with the specified compounds. Cells were lysed in PBS with 1% NP-40 and phosphatase inhibitors cocktail set II (Calbiochem). The cleared cell lysates were incubated with 50 μl agarose-coupled anti-phosphotyrosine antibodies (4G10-AC, Upstate Biotechnologies) for 3 hrs at 4° C. Care was taken to calibrate the amount of cells employed, so that considerable increases in phosphorylated FGFR could be detected. The bound protein was washed, eluted using 150 mM phenyl phosphate (Sigma), precipitated by 12% trichloroacetic acid, washed in cold acetone and dissolved in SDS-PAGE sample buffer. Immunoblotting was performed using antibodies against the recombinant StrepII-tag (IBA biotech). For immunoprecipitation: ˜1×10^7 cells were transiently transfected with the 180 kDa NCAM isoform or a control vector. Cells were incubated for 24 h and then starved overnight. After lysis, FGFR was purified on a StrepTactin Minicolumn (IBA Biotech) according to the manufacturer's instructions, and analyzed by immunoblotting with polyclonal antibodies against human NCAM.
# [4] = test system: polyclonal antibody raised against the intact FGL-peptide; test: Competitive ELISA of immunoreactivity with antibody raised against FGL-peptide; type: binding; settings: rabbit serum
# Text: Antibody specifically recognising an epitope comprising SEQ ID NO: 1 (FGL-peptide) were raised in rabbits according the standard procedure (Gill B M, Barbosa J A, Dinh T Q, Garrod S, O'Connor D T: Chromogranin B: isolation from pheochromocytoma, N-terminal sequence, tissue distribution and secretory vesicle processing. Regul Peptides 33:223-35, 1991). Synthetic FGL-peptide was coupled to a carrier protein, KLH (Keyhole Limpets Hemocyanin). The peptide was mixed with Freunds incomplete adjuvant and the mixture was injected into rabbits. 208 μg peptide was used per immunisation (per rabbit).
# Antibodies (serum) were tested for specificity by competitive ELISA using a series FGL-peptide truncated variants according to the protocol described in R. J. Jenny, T. L. Messier, L. A. Ouellette, and W. R. Church, Methods Enzymol. 222, 400 (1993). 100% immunoreactivity was ob-served only with the intact FGL-peptide consisting of SEQ ID NO: 1.
molecule,measurement,setting,value
"Nc1ncnc2c1ncn2[C@@H]1O[C@H](COP(=O)(O)OP(=O)(O)CP(=O)(O)O)[C@@H](O)[C@H]1O [AMP-PCP, reference compound]",inhibition of the neuritogenic effect induced by the F3 module 2,"[1]; 5 μM F3 module, ATP or AMP-PCP 0.4, 1.0 mM",complete inhibition
same,inhibition of the neuritogenic effect induced by the FG loop peptide,"[1]; 50 μM peptide, ATP or AMP-PCP 0.4, 1.0 mM",complete inhibition
"Cc1c[nH]c(/C=C2\C(=O)Nc3ccccc32)c1CCC(=O)O [SU54402, reference compound]",block of neurite outgrowth stimulation by the EF loop peptide,[1]; hippocampal neurons,specifically blocked
"I: EVYVVAENQQGKSKAKK / II: EVYVVAENQQGKSKAK / III: EVYVVAENQQGKSKA / IV: EVYVVAENQQGKSKA (amide I:16-IV:C, I:17-II:C, II:16-III:C (inferred)) [dendrimeric FG loop peptide]",coefficient of dissociation,[2],3.97±2.29×10^−3 s^−1
same,kon,"[2]; immobilized FGFR modules 2, 3, read-out: coefficient of association",2070 ± 1.08e+06 M⁻¹ s⁻¹
same,FGFR phosphorylation compared to the non-stimulated cells,[3],substantially increase
"SEQ ID NO:151: truncated version of the FG loop peptide, residues A^77-K^83 of the NCAM F3 module 2 (AENQQGK; NCAM Fn III, 2 [Swiss-Prot P13591] FGFR binding motif (Variant))",neurite outgrowth in dose-response study,"[1]; hippocampal neurons, neurite length versus concentration",induced neurite outgrowth with a bell-shaped curve
same,retained stimulatory effect relative to the entire (non-mutated) FG loop peptide,[1]; hippocampal neurons,approximately 50%
"SEQ ID NO:171: 11-amino acid fragment of SEQ ID NO: 5 (axonal-associated cell adhesion molecule), two amino acids truncated from the C-terminus (VAENSRGKNVA; Axonal-associated cell adhesion molecule [NCBI NP_446331] FGFR binding motif)",stimulation of neurite outgrowth / length of neurites,[1]; hippocampal neurons,capable of stimulation of neurite outgrowth
same,concentration of the peptide at maximal effect,"[1]; hippocampal neurons, neurite outgrowth",about 0.3 μg/ml
"TIMGLKPETRYAVR (FIII,1 domain of NCAM (Swiss-Prot P13591) FGFR binding motif) [EF loop peptide, peptide corresponding to residues T^573-R^586 of the NCAM F3 module 1]",binding to the immobilized FGFR modules,[2],cannot be detected
same,stimulation of neurite outgrowth / length of neurites,[1]; hippocampal neurons,stimulate the neurite outgrowth significantly
"YKK: the FG loop peptide in which Y^74, K^83 and K^85 were substituted with alanine (EVAVVAENQQGASAA)",inhibition of the stimulatory effect of the peptide by ATP,"[1]; 50 μM peptide, ATP 0.4, 1.0 mM",could no longer be inhibited
same,stimulation of neurite outgrowth / length of neurites,[1]; hippocampal neurons,retained its neuritogenic potency
same,retained stimulatory effect relative to the entire (non-mutated) FG loop peptide,[1]; hippocampal neurons,about 60%
dendrimeric EF loop peptide: four peptide sequences of SEQ ID NO: 9 connected to a three-lysine backbone through their C-termini (TIMGLKPETRYAVR; also: four copies linked via C-termini to three-lysine dendrimer backbone),binding to the immobilized FGFR modules,[2],real-time binding
"nonamer V^76-S^84: truncated version of the FG loop peptide, residues V^76-S^84 (VAENQQGKS; NCAM Fn III, 2 [Swiss-Prot P13591] FGFR binding motif (Variant))",retained stimulatory effect relative to the entire (non-mutated) FG loop peptide,[1]; hippocampal neurons,approximately 50%
peptide derived from FGF2: peptide from a loop region in FGF2 similar to the heptameric NCAM peptide (AMKEDGR; FGF2),stimulation of neurite outgrowth / length of neurites,[1]; hippocampal neurons,to the same extent as the similar NCAM peptide
"t1: truncated FGL-peptide lacking the three N-terminal amino acids (VVAENQQGKSKA; NCAM Fn III, 2 [Swiss-Prot P13591] FGFR binding motif (variant))",immunoreactivity,[4],40%
"t4: truncated FGL-peptide lacking the three C-terminal amino acids (EVYVVAENQQGK; NCAM Fn III, 2 [Swiss-Prot P13591] FGFR binding motif (variant))",immunoreactivity,[4],80%
B1,binding to the immobilized FGFR modules,[2],does not bind
B2,binding to the immobilized FGFR modules,[2],binds
same,coefficient of dissociation,[2],5.56±0.07×10^−3 s^−1
